# Measurements published in patent US20140377379A1, “METHOD FOR PROGNOSING THE AGE-AT-ONSET OF HUNTINGTON'S DISEASE” (Institut National de la Sante et de la Recherche Medicale …, priority 2010, published 2014).
# “Also recorded” adds a separate entry of the source.
# Legend:
# [1] = test system: 128Q nematodes (expanded polyQ in touch receptor neurons); experiment: Touch test (response to light touch at the tail) in 128Q nematodes; type: in vivo, C. elegans
# Method: (§1) The wild-type strain of C. elegans used was Bristol N2. Standard methods of culturing and handling worms were used. All strains were scored at 20° C. Touch tests, scoring of PLM cell processes, drug response assays and quantitative Real-Time PCR were performed as previously described (Parker et al. 2005 Nat Genet. 37:349-350). Western analysis was performed using standard protocols and htt fusion proteins detected with the GFP antibody ab6556 (Abcam). Mutations and transgenes used in this study were: aak-2(ok524), bar-1(ga80), cfz-2(ok 1201), cst-1(tm1900), ctl-2(ok1137), cwn-1(ok546), cwn-2(ok895), daf-2(e1370), daf-16(mgD150), dhc-1(or195), dnc-1(or 404), egl-20(n585), ftt-2(n4426), geln3[sir-2.1(+)], igls1[mec-3::htt57Q128::CFP;mec-7::YFP;lin-15(+)], igls245[mec-3::htt57Q19::CFP; mec-7::YFP; lin-15(+)]. lin-17(n671), lin-44(n1792), mig-1(e1787), pop-1(q624), rrf-3(pk1426), sir-2.1(ok434), sod-3(gk235) and ucp-4(ok 195). […]
# (§2) Touch tests involved scoring for the response to light touch at the tail by using a fine hair. […] The responses were recorded for every animal such that, for example, 3 responses out of 10 at the tail is given as 30% responsiveness, and the mean values for responsiveness were retained for comparison of nematode groups.
# [2] = test system: 19Q nematodes (normal polyQ); experiment: Touch test in 19Q control nematodes; type: in vivo, C. elegans
# Method: as §1, §2
# [3] = test system: PLM cells of 128Q animals; experiment: Scoring of PLM cell processes (axonal swelling); type: in vivo, C. elegans; details: versus DMSO controls
# Method: as §1, with “195). All strains were obtained from the C. elegans Genetics Center (University of Minnesota, Minneapolis) except for cst-1(tm1900) which was from the National Bioresource Project for the Nematode (Tokyo, Japan). For strain construction with polyQ transgenes, mutants were verified by visible phenotypes, PCR analysis for deletion mutants, sequencing for point mutations or a combination thereof.” for “195).”
# [4] = test system: 109Q/109Q striatal cells; experiment: Cell death assay in mutant htt striatal cells from HdhQ111 mice; type: cell-based, mouse
# Method: Cell death assays for HdhQ111 mouse striatal cells expressing full-length htt with either wild-type (7Q/7Q) or mutant (109Q/109Q) polyglutamines were performed as previously described (Arango et al. 2006 Neurosci 26:4649-59). jetPEI was used for transfection with cDNA and jetSI-ENDO for siRNA assays as indicated by the manufacturer (PolyPlus Transfection). siRNA oligos were obtained from Clontech (β-catenin) and QIAGEN (SIRT1, SIRT2, SIRT3, UCP2 and UCP4). Mixes of 3-4 different siRNA sequences per gene (25 or 33 nM) were systematically tested for modulation of cell survival and siRNA target gene expression, followed by the evaluation of individual siRNA sequences at optimal concentration (25-100 nM). […] The siRNA sequences shown in figures are as it follows: β-catenin siRNA, 5′-[…]-3′ (100 nM) (SEQ ID NO:41); FoxO3a siRNA 5′-[…]-3′ (SEQ ID NO:42) (100 nM); SIRT1 siRNA, 5′-[…]-3′ (SEQ ID NO:43) (25 nM); SIRT2 siRNA 5′-[…]-3′ (SEQ ID NO:44) (25 nM); SIRT3 siRNA, 5′-[…]-3′ (SEQ ID NO:45) (25 nM); UCP2 siRNA, 5′-[…]-3′ (SEQ ID NO:46) (33 nM), and UCP4 siRNA sequences 5′-[…]-3′ (SEQ ID NO:47) (33 nM). The constructs encoding an active variant of SIRT1 (2 kb cDNA) lacking an internal segment in the N-terminus and full length FoxO3a were pcDNA3.1-sirt1-Flag and pcDNA3.1-FoxO3a-HA, respectively. Cells were subjected to DAPI staining and cell death was scored 48 hours after cell transfection by counting picnotic versus normal nuclei in DAPI- and JetSI-ENDO-positive cells. Cytoplasmic and nuclear proteins were extracted as previously described (Arango et al. 2006 Neurosci 26:4649-59), separated by SDS-PAGE and analyzed by Western blotting using the following primary antibodies: Mouse anti-SIRT1 (Upstate, 1:1000), mouse anti-SIRT2 (Santa Cruz, 1:100), rabbit anti-SIRT-3 (Abgent, 1:100), rabbit-anti-β-catenin (Cell Signaling, 1:5000), mouse anti-FoxO3a (Cell Signaling, 1:1000), goat-anti-UCP2 (Santa Cruz, dilution), rabbit-anti-UCP4 (Abcam, 1:25), mouse anti-actin (Invitrogen, 1:2000), anti-htt (4C8, Chemicon, 1:5000). Secondary antibodies were goat-anti-mouse IgG HRP-conjugated and goat-anti-rabbit IgG HRP-conjugated (Biorad). Proteins were detected using ECL+ and evaluated by densitometry. Quantitative Real-Time PCR experiments were performed as described in the Supporting Information/Materials and Methods. Chemicals were either purchased from Sigma (Resveratrol) and Calbiochem (B10, LiCl).
# [5] = test system: mutant htt; experiment: Western blot of mutant htt in 109Q/109Q cells; type: cell-based, mouse
# Method: (§3) Cell death assays for HdhQ111 mouse striatal cells expressing full-length htt with either wild-type (7Q/7Q) or mutant (109Q/109Q) polyglutamines were performed as previously described (Arango et al. 2006 Neurosci 26:4649-59). jetPEI was used for transfection with cDNA and jetSI-ENDO for siRNA assays as indicated by the manufacturer (PolyPlus Transfection). siRNA oligos were obtained from Clontech (β-catenin) and QIAGEN (SIRT1, SIRT2, SIRT3, UCP2 and UCP4). […] Cells were subjected to DAPI staining and cell death was scored 48 hours after cell transfection by counting picnotic versus normal nuclei in DAPI- and JetSI-ENDO-positive cells. Cytoplasmic and nuclear proteins were extracted as previously described (Arango et al. 2006 Neurosci 26:4649-59), separated by SDS-PAGE and analyzed by Western blotting using the following primary antibodies: Mouse anti-SIRT1 (Upstate, 1:1000), mouse anti-SIRT2 (Santa Cruz, 1:100), rabbit anti-SIRT-3 (Abgent, 1:100), rabbit-anti-β-catenin (Cell Signaling, 1:5000), mouse anti-FoxO3a (Cell Signaling, 1:1000), goat-anti-UCP2 (Santa Cruz, dilution), rabbit-anti-UCP4 (Abcam, 1:25), mouse anti-actin (Invitrogen, 1:2000), anti-htt (4C8, Chemicon, 1:5000). […] Proteins were detected using ECL+ and evaluated by densitometry. Quantitative Real-Time PCR experiments were performed as described in the Supporting Information/Materials and Methods. […]
# [6] = test system: UCP4 mRNA; experiment: Quantitative RT-PCR of UCP4 mRNA in striatal cells; type: cell-based, mouse; details: for UCP4 mRNA levels: 109Q/109Q cells, qRT-PCR
# Method: as §3, with “UCP4). Mixes of 3-4 different siRNA sequences per gene (25 or 33 nM) were systematically tested for modulation of cell survival and siRNA target gene expression, followed by the evaluation of individual siRNA sequences at optimal concentration (25-100 nM).” for “UCP4).”
# Quantitative RT-PCR was performed on RNA extracted from 109Q/109Q mouse striatal cells, transfected with the appropriate siRNAs, to assess gene silencing efficiency. […]
# [7] = test system: 7Q/7Q striatal cells; experiment: Cell death assay in normal htt striatal cells; type: cell-based, mouse; details: siRNA
# Method: as §3
# [8] = test system: β-catenin; experiment: Western blot of β-catenin in 109Q/109Q cells; type: cell-based, mouse
# Method: as §3
# [9] = test system: UCP2 mRNA; experiment: Quantitative RT-PCR of UCP2 mRNA in striatal cells; type: cell-based, mouse
# Method: as §3
# [10] = test system: reactive oxygen species (ROS) levels in striatal cells; experiment: ROS levels in striatal cells; type: cell-based, mouse
# [11] = siRNA 25-100 nM, cell death scored 48 hours after transfection, versus untreated
compound,measurement,setting,value
"O=C1Nc2cc(Br)ccc2/C1=C1/Nc2ccccc2/C1=N\O [BIO, 6-bromoindirubin-3′-oxime]",neuronal dysfunction / expanded polyQ neurotoxicity (loss of response to touch),"[1]; 128Q nematodes, versus DMSO or untreated […]Q controls",rescues expanded polyQ neurotoxicity; also recorded: reduced neuronal dysfunction in 1280 animals
same,BIO rescuing activity in 128Q animals mutant for FoxO network genes,"[1]; 128Q, mutants for daf-16, sir-2.1, bar-1 and ucp-4","lost and in a bar-1 dependent manner and no effect in mutants for sir-2.1, daf-16 and ucp-4"
same,"effect on normal polyQ (19Q) controls, touch response",[2],no effect on 19Q controls
same,axonal swelling (AxSw),[3],reduced AxSw in PLM cells of 128Q animals; also recorded: reduced axonal swelling
same,survival effect of BIO combined with β-catenin siRNA,"[4]; BIO 0.5 μM + β-catenin siRNA, 109Q/109Q cells",lost by β-catenin siRNA
same,survival of 109Q/109Q cells,"[4]; BIO 0.5 μM, cell death induced by serum deprivation, versus DMSO controls",enhanced the survival of 109Q/109Q cells
[Cl-].[Li+] [Lithium chloride],"effect on normal polyQ (19Q) controls, touch response",[2],no effects on 19Q controls
"UCP4 siRNA: siRNA 5′-GCCTATAGTATGTGCTTAATT-3′ (SEQ ID NO:47) (33 nM) (listed as DNA, chemistry not given here)",survival of 109Q/109Q cells,[4]; [11],increased the survival of 109Q/109Q cells
same,mutant htt expression,[5],unchanged; also recorded: no change in htt expression
same,UCP4 mRNA levels,[6],decreased UCP4 mRNA levels
"β-catenin siRNA: siRNA 5′-GGCTTTTCCCAGTCCTTCATT-3′ (100 nM) (SEQ ID NO:41) (listed as DNA, chemistry not given here)",survival of 109Q/109Q cells,[4]; [11],reduced the survival of mutant htt striatal cells; also recorded: decreased the survival of 109Q/109Q cells
same,survival of normal htt (7Q/7Q) cells,[7],no effects in normal htt cells
same,β-catenin expression,[8],β-catenin was reduced
same,mutant htt expression,[5],unchanged; also recorded: no change in htt expression
same,UCP2 expression,[9]; 7Q/7Q cells,No effect
same,UCP2 mRNA levels,"[9]; 109Q/109Q cells, qRT-PCR",downregulated; also recorded: decreased UCP2 mRNA levels
same,UCP4 expression,[6]; 7Q/7Q cells,No effect
same,UCP4 mRNA levels,[6],upregulated
same,ROS levels,"[10]; mutant htt (109Q/109Q) striatal cells, versus untreated",increased reactive oxygen species (ROS) levels in mutant htt striatal cells
same,ROS levels,[10]; normal htt (7Q/7Q) cells,no effects in normal htt cells
